The target of assay [1] is T1, hEAG1 (Kv10.1, KCNH1) (Homo sapiens, UniProt O95259).
T1 construct: full length; untagged in pcDNA3.1 transiently in CHO cells (patch clamp); tetramer
T1 sequence (O95259 1-962 isoform O95259-2): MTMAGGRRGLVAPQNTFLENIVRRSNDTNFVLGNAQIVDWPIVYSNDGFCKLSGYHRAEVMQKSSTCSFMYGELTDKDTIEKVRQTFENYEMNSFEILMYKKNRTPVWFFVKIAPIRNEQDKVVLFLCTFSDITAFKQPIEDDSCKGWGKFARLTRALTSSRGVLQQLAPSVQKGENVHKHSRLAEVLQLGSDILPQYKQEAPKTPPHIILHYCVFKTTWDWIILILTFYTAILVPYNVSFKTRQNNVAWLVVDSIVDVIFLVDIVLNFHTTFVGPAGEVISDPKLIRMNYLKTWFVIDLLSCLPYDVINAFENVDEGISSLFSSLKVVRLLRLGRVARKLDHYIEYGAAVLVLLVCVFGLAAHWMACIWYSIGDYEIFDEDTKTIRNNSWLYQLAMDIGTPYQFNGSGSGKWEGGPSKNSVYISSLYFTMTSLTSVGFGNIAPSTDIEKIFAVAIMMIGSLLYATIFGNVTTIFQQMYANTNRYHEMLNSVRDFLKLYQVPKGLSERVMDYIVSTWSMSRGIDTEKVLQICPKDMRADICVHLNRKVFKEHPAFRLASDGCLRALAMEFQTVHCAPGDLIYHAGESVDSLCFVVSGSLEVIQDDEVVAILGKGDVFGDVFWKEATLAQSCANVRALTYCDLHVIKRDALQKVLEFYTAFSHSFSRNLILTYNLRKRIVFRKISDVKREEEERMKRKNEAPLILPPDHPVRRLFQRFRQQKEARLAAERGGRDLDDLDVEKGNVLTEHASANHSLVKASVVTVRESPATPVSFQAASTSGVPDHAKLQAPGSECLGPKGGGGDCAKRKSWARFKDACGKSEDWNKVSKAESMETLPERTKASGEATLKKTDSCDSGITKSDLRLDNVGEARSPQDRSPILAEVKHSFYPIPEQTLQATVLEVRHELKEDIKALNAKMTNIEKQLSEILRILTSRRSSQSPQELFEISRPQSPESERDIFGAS
The experiment in a line: patch clamp, peak current inhibition at […] mV, Hill fit. It counts as cell-based. Background: The patch-clamp technique gives a direct electrical read-out from membranes.

The target of assay [2] is T1, hEAG1 (Kv10.1, KCNH1). The experiment in a line: bio-layer interferometry, biotinylated FLAG-tagged channel on streptavidin sensor, Hill fit. The format is binding. The conditions noted are these: 200-s cumulative application epochs; PBS, 0.02% Tween-20, 0.1% BSA, pH 7.4; room temperature; brain-derived lipid of mixed acyl chains. In general terms: BLI is a label-free optical method that tracks binding on a fibre tip over time.

Like-named read-outs stand apart in the source and are kept apart here.

This note sets out measurements from article PMC4804213, “Human EAG channels are directly modulated by PIP2 as revealed by electrophysiological and optical interference investigations” (Scientific Reports, 2016).

Broadly, the IC50 is the midpoint of a concentration-inhibition curve. A high value points to weaker potency. On hEAG1 (Kv10.1, KCNH1) [1], `CCCCCCCC(=O)OC[C@H](COP(=O)(O)O[C@@H]1[C@H](O)[C@H](O)[C@@H](OP(=O)(O)O)[C@H](OP(=O)(O)O)[C@H]1O)OC(=O)CCCCCCC` [diC8-PIP2] gave an IC50 of 18600 ± 600 nM.
As usually defined, the Kd is the free concentration of one partner at which half of the binding sites on the other are occupied at equilibrium, for simple one-to-one binding. A higher Kd goes with weaker binding. Take PIP2: the IC50 against hEAG1 (Kv10.1, KCNH1) [1] (200-s application to the intracellular side, peak current at 40 mV, room temperature, brain-derived lipid of mixed acyl chains) worked out at 350 ± 10 nM. For the same compound, at hEAG1 (Kv10.1, KCNH1) [2], the Kd came out at 350 ± 40 nM.
